Results from patent US4428938A, “Peptides affecting the immune regulation and a process for their preparation” (Richter Gedeon Vegyeszeti Gyar Rt., priority 1981, dated 1984).
Non-standard residues stand in square brackets, D forms with d. Residues, ends and D or L forms follow the SMILES beside them. pGlu = O=C1CC[C@@H](C(=O)O)N1

How the values were obtained:
[1] = test system: lymphocytes of patients suffering from rheumatoid arthritis; assay: Active E-rosette test, lymphocytes of rheumatoid arthritis patients; assay type: cell-based, human; details: for E-rosette forming activity, percentage amount of active lymphocytes: n = 4
Description: (§1) The active E-rosette test was carried out according to a modified method of Wybran et al [Wybran et al: New Engl. J. Med. 292, 475 (1975)] by the lymphocites of healthy and autoimmune patients (rheumatoid arthritis and systemic lupus erythematosus). To 50 μl of a lymphocyte cell suspension 10^-3 -10^-11 moles/lit. solutions of the test material were added and the mixture was incubated in an atmosphere containing 5.0% of carbon dioxide, at 37° C. for 60 minutes. Thereafter 50 μlit. of a 1% sheep erythrocite suspension were added and the mixture was centrifuged at 1000 r.p.m. for 10 minutes followed by shaking with a modified Gallenkampf-shaker (shaking time: 30 sec, stroke: 8 cm, shaking frequency: 65/min.). The rosettes were fixed with a 0.1% glutaric aldehyde (50 μlit. for each tube, 3 min.). Lymphocytes bonding more than three sheep erythrocite were counted under a microscope and 4×100 cells were evaluated. The separated lymphocytes contain macrophages and polymorphonuclear cells (up to 10%) as an impurity. The number of the cells forming the rosettes was corrected by this value each case.

[2] = test system: lymphocytes of healthy persons; assay: Active E-rosette test, lymphocytes of healthy persons; assay type: cell-based, human; details: for E-rosette forming activity, percentage amount of active lymphocytes: n = 4
Description: as §1

[3] = test system: plaque forming spleen cells (PFC); assay: Effect on plaque forming spleen cells (PFC); assay type: in vivo, H. Wistar rats; details: for In vivo effect on plaque forming spleen cells (in words): in all tested doses; for Ratio of the plaque formation produced by treated and untreated (control) animals: new-born animals
Description: (2) The number of the cells producing a specific antibody was determined by the method of Canningham Handbook of Experimental Immunology (editor: D. M. Weir), 2nd Volume, p. 285, Blackwell, Oxford-London (1978). According to this method from the spleen cells of immunized animals, sheep erythrocyte suspension and complement a homogenous suspension was prepared and it was placed into a chamber suitable for forming a single cell layer. Around the spleen cells lytic areolas are formed, the number of which is identical with the number of the cells producing a specific antibody (plaque forming cells, PFC).
The test animals, not later than 12 hour after birth, were given a single i.p. dose of the test material. According to the method (1) three different doses of each substance were tested. On the 7th day after immunization the plaque formation of the spleen cells isolated from the animals was examined.

[4] = test system: antibody production against sheep erythrocyte; assay: Effect on antibody production (Ceglowski's method), agglutination titer; assay type: in vivo, H. Wistar rats
Description: (1) The effect on antibody production was tested according to Ceglowski's method [Ceglowski: Ann. N.Y. Acad. Sci. 249, 343 (1975)]. New-born H. Wistar rats were treated with single 25 μlit. doses of 4×10^-3 -4×10^-7 moles/lit. of the test material (9 animals for each dose) at the latest at the 12th hour after birth. The 14-day animals were then immunized with a sheep erythrocyte suspension administering 0.5 ml. of a 5% sheep erythrocyte suspension each animal intraperitoneally. On the 7th day after immunization the animals were decapitated. The blood of three animals was mixed and from the serum obtained (after centrifuging at 3000 r.p.m. for 10 minutes) the titers for antibodies were determined by the method of Takatsy [Takatsy: Acta Microbiol. Acad. Sci. Hung. 3, 191 (1955)]. The results are expressed in agglutination titers. The titer corresponds to the […] dilution of the serum in which agglutination can be observed.

[5] = test system: antibody production against sheep erythrocyte; assay: as above; assay type: in vivo, H. Wistar rats; details: footnote y: concentration 2·10^-1 moles/liter
[6] = single i.p. dose 1.0·10^-4 mmoles
[7] = single i.p. dose 1.0·10^-6 mmoles
[8] = single 25 μlit. dose of 4·10^-3 moles/liter to new-born rats
[9] = single 25 μlit. dose of 4·10^-5 moles/liter to new-born rats
[10] = single 25 μlit. dose of 4·10^-7 moles/liter to new-born rats

CC(C)[C@H](NC(=O)[C@H](CC(=O)O)NC(=O)[C@H](CCCCN)NC(=O)[C@H](C)N)C(=O)O [Ala--Lys--Asp--Val, Ala-Lys-Asp-Val] (H-AKDV-OH)
E-rosette forming activity, percentage amount of active lymphocytes ([1]; 10^-3 moles/liter): 25.3% | E-rosette forming activity, percentage amount of active lymphocytes ([1]; 10^-5 moles/liter): 22.8% | E-rosette forming activity, percentage amount of active lymphocytes ([1]; 10^-7 moles/liter): 22.5% | E-rosette forming activity, percentage amount of active lymphocytes ([1]; 10^-9 moles/liter): 23.9% | E-rosette forming activity, percentage amount of active lymphocytes ([1]; 10^-11 moles/liter): 20.3% | E-rosette forming activity, percentage amount of active lymphocytes ([2]; 10^-3 moles/liter): 43.4% | E-rosette forming activity, percentage amount of active lymphocytes ([2]; 10^-5 moles/liter): 34.9% | Effect on E-rosette forming activity (in words) ([2]; 10^-7 moles/lit.): significant stimulating effect | E-rosette forming activity, percentage amount of active lymphocytes ([2]; 10^-7 moles/liter): 47.5% | E-rosette forming activity, percentage amount of active lymphocytes ([2]; 10^-9 moles/liter): 39.1% | E-rosette forming activity, percentage amount of active lymphocytes ([2]; 10^-11 moles/liter): 36.2% | In vivo effect on plaque forming spleen cells (in words) [3]: significant inhibiting activity | Ratio of the plaque formation produced by treated and untreated (control) animals [3, 6]: 0.04 | Ratio of the plaque formation produced by treated and untreated (control) animals [3, 7]: 0.01

C[C@H](NC(=O)[C@H](CC(=O)O)NC(=O)[C@H](CCCCN)NC(=O)[C@@H](N)CCCNC(=N)N)C(=O)O [Arg--Lys--Asp--Ala, Arg-Lys-Asp-Ala] (H-RKDA-OH)
In vivo effect on the antibody production (in words) ([4]; 4.10^-7 moles/lit.): significant stimulating activity | Antibody production, agglutination titer (X ± S.D.) [4, 8]: 10.5 ± 1.5 | Antibody production, agglutination titer (X ± S.D.) [4, 9]: 11.5 ± 0.9 | Antibody production, agglutination titer (X ± S.D.) [4, 10]: 12.0 ± 0 | E-rosette forming activity, percentage amount of active lymphocytes ([1]; 10^-3 moles/liter): 28.6% | E-rosette forming activity, percentage amount of active lymphocytes ([1]; 10^-5 moles/liter): 24.5% | E-rosette forming activity, percentage amount of active lymphocytes ([1]; 10^-7 moles/liter): 25.8% | E-rosette forming activity, percentage amount of active lymphocytes ([1]; 10^-9 moles/liter): 25.3% | E-rosette forming activity, percentage amount of active lymphocytes ([1]; 10^-11 moles/liter): 27.9% | E-rosette forming activity, percentage amount of active lymphocytes ([2]; 10^-3 moles/liter): 41.2% | E-rosette forming activity, percentage amount of active lymphocytes ([2]; 10^-5 moles/liter): 39.6% | E-rosette forming activity, percentage amount of active lymphocytes ([2]; 10^-7 moles/liter): 40.8% | E-rosette forming activity, percentage amount of active lymphocytes ([2]; 10^-9 moles/liter): 36.4% | Effect on E-rosette forming activity (in words) ([2]; 10^-11 moles/lit.): stimulating effect | E-rosette forming activity, percentage amount of active lymphocytes ([2]; 10^-11 moles/liter): 40.5% | In vivo effect on plaque forming spleen cells (in words) [3]: substantial increase | Ratio of the plaque formation produced by treated and untreated (control) animals [3, 6]: 4.9 | Ratio of the plaque formation produced by treated and untreated (control) animals [3, 7]: 1.9 | Ratio of the plaque formation produced by treated and untreated (control) animals ([3]; single i.p. dose 1.0·10^-8 mmoles): 3.0

COC(=O)[C@@H](NC(=O)[C@H](CC(=O)O)NC(=O)[C@H](CCCCN)NC(=O)[C@@H](N)CCCNC(=N)N)C(C)C [Arg--Lys--Asp--Val--OMe, Arg-Lys-Asp-Val-OMe] (H-RKDV-OMe)
Antibody production, agglutination titer (X ± S.D.) [4, 8]: 6.0 ± 1.7 | Antibody production, agglutination titer (X ± S.D.) [4, 9]: 4.5 ± 0.5 | Antibody production, agglutination titer (X ± S.D.) [4, 10]: 5.5 ± 2.6 | E-rosette forming activity, percentage amount of active lymphocytes ([1]; 10^-3 moles/liter): 31.2% | E-rosette forming activity, percentage amount of active lymphocytes ([1]; 10^-5 moles/liter): 30.8% | Effect on E-rosette forming activity (in words) ([1]; 10^-7 moles/lit.): stimulating effect | E-rosette forming activity, percentage amount of active lymphocytes ([1]; 10^-7 moles/liter): 32.4% | E-rosette forming activity, percentage amount of active lymphocytes ([1]; 10^-9 moles/liter): 27.9% | E-rosette forming activity, percentage amount of active lymphocytes ([1]; 10^-11 moles/liter): 26.5% | E-rosette forming activity, percentage amount of active lymphocytes ([2]; 10^-3 moles/liter): 26.8% | E-rosette forming activity, percentage amount of active lymphocytes ([2]; 10^-5 moles/liter): 27.2% | E-rosette forming activity, percentage amount of active lymphocytes ([2]; 10^-7 moles/liter): 29.4% | E-rosette forming activity, percentage amount of active lymphocytes ([2]; 10^-9 moles/liter): 24.8% | E-rosette forming activity, percentage amount of active lymphocytes ([2]; 10^-11 moles/liter): 23.8%

CC(C)[C@H](NC(=O)[C@H](CC(=O)O)NC(=O)[C@H](CCCCN)NC(=O)[C@H](CCCNC(=N)N)NC(=O)[C@@H]1CCC(=O)N1)C(=O)O [Glp--Arg--Lys--Asp--Val, Glp-Arg-Lys-Asp-Val] ([pGlu]RKDV-OH)
In vivo effect on the antibody production (in words) ([4]; 4.10^-7 moles/lit.): inhibiting activity | Antibody production, agglutination titer (X ± S.D.) [4, 8]: 9.0 ± 2.6 | Antibody production, agglutination titer (X ± S.D.) [4, 9]: 8.3 ± 0.6 | Antibody production, agglutination titer (X ± S.D.) [4, 10]: 7.2 ± 1.3 | E-rosette forming activity, percentage amount of active lymphocytes ([1]; 10^-3 moles/liter): 22.8% | E-rosette forming activity, percentage amount of active lymphocytes ([1]; 10^-5 moles/liter): 23.2% | E-rosette forming activity, percentage amount of active lymphocytes ([1]; 10^-7 moles/liter): 21.4% | E-rosette forming activity, percentage amount of active lymphocytes ([1]; 10^-9 moles/liter): 19.4% | E-rosette forming activity, percentage amount of active lymphocytes ([1]; 10^-11 moles/liter): 20.4%

CC(C)[C@H](NC(=O)[C@H](CC(=O)O)NC(=O)[C@H](CCCCN)NC(=O)[C@H](CCCNC(=N)N)NC(=O)[C@@H]1CCC(=O)N1)C(=O)N[C@@H](Cc1ccc(O)cc1)C(=O)O [Glp--Arg--Lys--Asp--Val--Tyr, Glp-Arg-Lys-Asp-Val-Tyr] ([pGlu]RKDVY-OH)
In vivo effect on the antibody production (in words) ([4]; 2.10^-3 moles/lit.): inhibiting activity | Antibody production, agglutination titer (X ± S.D.) ([4]; column 4·10^-3 moles/liter, footnote x: concentration is half of the head value): 3.0 ± 1.0 | Antibody production, agglutination titer (X ± S.D.) ([4]; column 4·10^-5 moles/liter, footnote x: concentration is half of the head value): 5.2 ± 0.8 | Antibody production, agglutination titer (X ± S.D.) [5]: 5.5 ± 0.6 | E-rosette forming activity, percentage amount of active lymphocytes ([1]; 10^-3 moles/liter): 24.1% | E-rosette forming activity, percentage amount of active lymphocytes ([1]; 10^-5 moles/liter): 22.7% | E-rosette forming activity, percentage amount of active lymphocytes ([1]; 10^-7 moles/liter): 22.6% | E-rosette forming activity, percentage amount of active lymphocytes ([1]; 10^-9 moles/liter): 26.6% | E-rosette forming activity, percentage amount of active lymphocytes ([1]; 10^-11 moles/liter): 24.9% | E-rosette forming activity, percentage amount of active lymphocytes ([2]; 10^-3 moles/liter): 29.9% | E-rosette forming activity, percentage amount of active lymphocytes ([2]; 10^-5 moles/liter): 22.5% | E-rosette forming activity, percentage amount of active lymphocytes ([2]; 10^-7 moles/liter): 29.4% | E-rosette forming activity, percentage amount of active lymphocytes ([2]; 10^-9 moles/liter): 25.5% | E-rosette forming activity, percentage amount of active lymphocytes ([2]; 10^-11 moles/liter): 29.9%
